This note sets out measurements from patent US11406629B2, “Solid forms comprising 4-amino-2-(2,6-dioxopiperidine-3-yl)isoindoline-1,3-dione and a coformer, compositions and methods of use thereof” (Celgene Corporation, priority 2013, dated 2022).

Series [1] can be described thus: Slurry of Form B of pomalidomide in EtOH, 0.1 N HCl, or water (solid form conversion). The series is classed as physicochemical. As to conditions: slurring in EtOH, 0.1 N HCl, or water for 3 days. The source says: In one embodiment, without being limited by particular theory, Form B is a metastable form of pomalidomide.
The nature of series [2]: Solubility of pomalidomide in various solvents at ambient temperature (visual inspection, solvent aliquot addition). Type of series: physicochemical. As for the experimental part:
Solubility was estimated by treating a weighed sample of pomalidomide with measured aliquots of the test solvent at ambient temperature, with shaking and/or sonication between aliquots. Dissolution was determined by visual inspection. Solubility numbers were calculated by […]. The actual solubilities may be greater than the numbers calculated because of the use of solvent aliquots that were too large or because of slow dissolution rates. […] The solubility number is expressed as “greater than” if dissolution occurred on addition of the first solvent aliquot.

Structures are written as SMILES. Converted amounts (≈) assume the structure as drawn. Read-outs that look alike come from different tables or passages of the source. Bounds are passed on as bounds.

For the compound `Nc1cccc2c1C(=O)N(C1CCC(=O)NC1=O)C2=O` (stereo not drawn) [Form B of pomalidomide, 4-amino-2-(2,6-dioxopiperidine-3-yl)isoindoline-1,3-dione], the “Solid form stability on slurrying” value in series [1] was “converts to Form A of pomalidomide”.

Regarding `Nc1cccc2c1C(=O)N(C1CCC(=O)NC1=O)C2=O` (stereo not drawn) [Pomalidomide, 4-amino-2-(2,6-dioxopiperidine-3-yl)isoindoline-1,3-dione], the “solubility” value was 900 µg/mL (≈ 3.29 mM) in series [2] (Acetone); 6000 µg/mL (≈ 22 mM) in series [2] (DMF:acetone (1:2)); 2300 µg/mL (≈ 8.42 mM) in series [2] (Hexafluoroisopropanol); 3500 µg/mL (≈ 12.8 mM) in series [2] (THF:water (95:5)); below 1000 µg/mL in series [2] (organic solvent or mixture, thermodynamic from solid, 2,2,2-trifluoroethanol, read-out: Solubility); below 1000 µg/mL in series [2] (organic solvent or mixture, thermodynamic from solid, 2-methyltetrahydrofuran, read-out: Solubility). The solubility was below 1000 µg/mL in series [2] (organic solvent or mixture, thermodynamic from solid, Acetonitrile, read-out: Solubility); above 5000 µg/mL in series [2] (organic solvent or mixture, thermodynamic from solid, DMF, read-out: Solubility); 4200 µg/mL (≈ 15.4 mM) in series [2] (organic solvent or mixture, thermodynamic from solid, DMF:methanol (1:1), read-out: Solubility); 2400 µg/mL (≈ 8.78 mM) in series [2] (organic solvent or mixture, thermodynamic from solid, DMF:methanol (1:2), read-out: Solubility); below 1000 µg/mL in series [2] (organic solvent or mixture, thermodynamic from solid, Dichloromethane, read-out: Solubility); below 1000 µg/mL in series [2] (organic solvent or mixture, thermodynamic from solid, Methanol, read-out: Solubility). The solubility is below 1000 µg/mL in series [2] (organic solvent or mixture, thermodynamic from solid, acetone:water (95:5), read-out: Solubility) and 1100 µg/mL (≈ 4.03 mM) in series [2] (tetrahydrofuran (THF)).

By solubility is commonly meant the dissolved amount per volume that the medium holds.
